Values after ≈ are worked out from the molar mass of the structure shown.
Tests used:
Type in all cases: functional
Pichia kudriavzevii = experiment: Antifungal activity against Candida krusei AS 2.1045 assessed as inhibition of visible growth
Candida albicans [1] = experiment: Antifungal activity against Candida albicans SC 5314 assessed as inhibition of visible growth
Nakaseomyces glabratus = experiment: Antifungal activity against Clinical isolate Candida glabrata assessed as inhibition of visible growth
Candida parapsilosis = experiment: Antifungal activity against Candida parapsilosis GIM 2.190 assessed as inhibition of visible growth; details: Lodderomyces parapsilosis
Cryptococcus neoformans = experiment: Antifungal activity against Cryptococcus neoformans CGMCC 2.3161 assessed as inhibition of visible growth
Candida tropicalis = experiment: Antifungal activity against Candida tropicalis CGMCC 2.3739 assessed as inhibition of visible growth
Candida albicans [2] = experiment: Antifungal activity against Candida albicans CPCC 400616 assessed as inhibition of visible growth

Row | Structure (SMILES) | MIC80 (Pichia kudriavzevii) [µg/mL] | MIC80 (Candida albicans [1]) [µg/mL] | MIC80 (Nakaseomyces glabratus) [µg/mL] | MIC80 (Candida parapsilosis) [µg/mL] | MIC80 (Cryptococcus neoformans) [µg/mL] | MIC80 (Candida tropicalis) [µg/mL] | MIC80 (Candida albicans [2]) [µg/mL]
1 | OC(CNCc1ccc(-c2ccc(Cl)cc2)cc1)(Cn1cncn1)c1ccc(F)cc1F (stereo not given) | 0.05 (≈ 0.11 µM) | 0.025 (≈ 0.055 µM) | 0.05 (≈ 0.11 µM) | 0.025 (≈ 0.055 µM) | 0.05 (≈ 0.11 µM) | 0.025 (≈ 0.055 µM) | 0.025 (≈ 0.055 µM)
2 | CN(Cc1ccc(-c2ccccc2F)cn1)CC(O)(Cn1cncn1)c1ccc(F)cc1F (stereo not given) | 0.4 (≈ 0.882 µM) | 0.012 (≈ 0.0265 µM) | 0.8 (≈ 1.76 µM) | 0.012 (≈ 0.0265 µM) | 0.1 (≈ 0.221 µM) | 0.012 (≈ 0.0265 µM) | 0.025 (≈ 0.0551 µM)
3 | CN(Cc1nc(-c2ccc(Cl)cc2)cs1)CC(O)(Cn1cncn1)c1ccc(F)cc1F (stereo not given) | 0.2 (≈ 0.42 µM) | 0.012 (≈ 0.0252 µM) | 0.4 (≈ 0.84 µM) | 0.012 (≈ 0.0252 µM) | 0.8 (≈ 1.68 µM) | 0.025 (≈ 0.0525 µM) | 0.012 (≈ 0.0252 µM)
4 | CN(Cc1ccc(-c2ccc(Cl)cc2)s1)CC(O)(Cn1cncn1)c1ccc(F)cc1F (stereo not given) | 0.05 (≈ 0.105 µM) | 0.006 (≈ 0.0126 µM) | 0.2 (≈ 0.421 µM) | 0.006 (≈ 0.0126 µM) | 0.1 (≈ 0.211 µM) | 0.006 (≈ 0.0126 µM) | 0.012 (≈ 0.0253 µM)
5 | [2H]C([2H])([2H])N(Cc1ccc(-c2ccc(Cl)cc2)cc1)CC(O)(Cn1cncn1)c1ccc(F)cc1F (stereo not given) | 0.012 (≈ 0.0254 µM) | 0.006 (≈ 0.0127 µM) | 0.012 (≈ 0.0254 µM) | 0.006 (≈ 0.0127 µM) | 0.012 (≈ 0.0254 µM) | 0.006 (≈ 0.0127 µM) | 0.006 (≈ 0.0127 µM)
6 | CN(Cc1ccc(-c2ccc(-c3ccccc3)cc2)cn1)CC(O)(Cn1cncn1)c1ccc(F)cc1F (stereo not given) | 0.1 (≈ 0.195 µM) | 0.012 (≈ 0.0235 µM) | 0.1 (≈ 0.195 µM) | 0.012 (≈ 0.0235 µM) | 0.05 (≈ 0.0977 µM) | 0.012 (≈ 0.0235 µM) | 0.012 (≈ 0.0235 µM)
7 | CN(Cc1ccc(-c2ccc(Cl)cc2)o1)CC(O)(Cn1cncn1)c1ccc(F)cc1F (stereo not given) | 0.4 (≈ 0.872 µM) | 0.025 (≈ 0.0545 µM) | 0.4 (≈ 0.872 µM) | 0.1 (≈ 0.218 µM) | 0.4 (≈ 0.872 µM) | 0.025 (≈ 0.0545 µM) | 0.05 (≈ 0.109 µM)
8 | CN(Cc1ccc(-c2ccc(OC(F)(F)F)cc2)cn1)CC(O)(Cn1cncn1)c1ccc(F)cc1F (stereo not given) | 0.025 (≈ 0.0481 µM) | 0.012 (≈ 0.0231 µM) | 0.05 (≈ 0.0963 µM) | 0.006 (≈ 0.0116 µM) | 0.025 (≈ 0.0481 µM) | 0.012 (≈ 0.0231 µM) | 0.012 (≈ 0.0231 µM)
9 | CN(Cc1ccc(-c2cccc(Cl)c2)cn1)CC(O)(Cn1cncn1)c1ccc(F)cc1F (stereo not given) | 0.1 (≈ 0.213 µM) | 0.012 (≈ 0.0255 µM) | 0.2 (≈ 0.426 µM) | 0.012 (≈ 0.0255 µM) | 0.025 (≈ 0.0532 µM) | 0.012 (≈ 0.0255 µM) | 0.012 (≈ 0.0255 µM)
10 | CN(Cc1ccc(-c2ccc(C(F)(F)F)cc2)s1)CC(O)(Cn1cncn1)c1ccc(F)cc1F (stereo not given) | 0.1 (≈ 0.197 µM) | 0.012 (≈ 0.0236 µM) | 0.4 (≈ 0.787 µM) | 0.006 (≈ 0.0118 µM) | 0.1 (≈ 0.197 µM) | 0.006 (≈ 0.0118 µM) | 0.006 (≈ 0.0118 µM)
11 | COc1ccc(-c2ccc(CN(C)CC(O)(Cn3cncn3)c3ccc(F)cc3F)nc2)cc1 (stereo not given) | 0.1 (≈ 0.215 µM) | 0.012 (≈ 0.0258 µM) | 0.4 (≈ 0.859 µM) | 0.025 (≈ 0.0537 µM) | 0.4 (≈ 0.859 µM) | 0.012 (≈ 0.0258 µM) | 0.012 (≈ 0.0258 µM)
12 | CN(Cc1ccc(-c2ccc(OCC(F)(F)F)cc2)cn1)CC(O)(Cn1cncn1)c1ccc(F)cc1F (stereo not given) | 0.05 (≈ 0.0937 µM) | 0.012 (≈ 0.0225 µM) | 0.1 (≈ 0.187 µM) | 0.012 (≈ 0.0225 µM) | 0.1 (≈ 0.187 µM) | 0.012 (≈ 0.0225 µM) | 0.012 (≈ 0.0225 µM)
13 | CN(Cc1ccc(-c2ccc(Cl)cc2)nc1)CC(O)(Cn1cncn1)c1ccc(F)cc1F (stereo not given) | 0.025 (≈ 0.0532 µM) | 0.012 (≈ 0.0255 µM) | 0.1 (≈ 0.213 µM) | 0.006 (≈ 0.0128 µM) | 0.05 (≈ 0.106 µM) | 0.012 (≈ 0.0255 µM) | 0.012 (≈ 0.0255 µM)
14 | CN(Cc1ccc(-c2ccccc2)cn1)CC(O)(Cn1cncn1)c1ccc(F)cc1F (stereo not given) | 0.2 (≈ 0.459 µM) | 0.012 (≈ 0.0276 µM) | 0.8 (≈ 1.84 µM) | 0.025 (≈ 0.0574 µM) | 0.1 (≈ 0.23 µM) | 0.025 (≈ 0.0574 µM) | 0.025 (≈ 0.0574 µM)
15 | CN(Cc1ccc(-c2ccc(OC(F)(F)F)cc2)nc1)CC(O)(Cn1cncn1)c1ccc(F)cc1F (stereo not given) | 0.025 (≈ 0.0481 µM) | 0.012 (≈ 0.0231 µM) | 0.05 (≈ 0.0963 µM) | 0.006 (≈ 0.0116 µM) | 0.05 (≈ 0.0963 µM) | 0.025 (≈ 0.0481 µM) | 0.012 (≈ 0.0231 µM)
16 | CN(Cc1ccc(-c2ccc(Cl)cc2)c(F)c1)CC(O)(Cn1cncn1)c1ccc(F)cc1F (stereo not given) | 0.025 (≈ 0.0513 µM) | 0.006 (≈ 0.0123 µM) | 0.025 (≈ 0.0513 µM) | 0.006 (≈ 0.0123 µM) | 0.012 (≈ 0.0246 µM) | 0.006 (≈ 0.0123 µM) | 0.006 (≈ 0.0123 µM)
17 | CC(C)c1ccc(-c2ccc(CN(C)CC(O)(Cn3cncn3)c3ccc(F)cc3F)nc2)cc1 (stereo not given) | 0.1 (≈ 0.209 µM) | 0.012 (≈ 0.0251 µM) | 0.2 (≈ 0.419 µM) | 0.012 (≈ 0.0251 µM) | 0.025 (≈ 0.0523 µM) | 0.012 (≈ 0.0251 µM) | 0.012 (≈ 0.0251 µM)
18 | CN(Cc1ccc(-c2ccc(Cl)cc2F)cc1)CC(O)(Cn1cncn1)c1ccc(F)cc1F (stereo not given) | 0.012 (≈ 0.0246 µM) | 0.006 (≈ 0.0123 µM) | 0.025 (≈ 0.0513 µM) | 0.006 (≈ 0.0123 µM) | 0.012 (≈ 0.0246 µM) | 0.006 (≈ 0.0123 µM) | 0.006 (≈ 0.0123 µM)
19 | CN(Cc1ccc(-c2cccc(F)c2)cn1)CC(O)(Cn1cncn1)c1ccc(F)cc1F (stereo not given) | 0.2 (≈ 0.441 µM) | 0.025 (≈ 0.0551 µM) | 0.8 (≈ 1.76 µM) | 0.012 (≈ 0.0265 µM) | 0.05 (≈ 0.11 µM) | 0.012 (≈ 0.0265 µM) | 0.025 (≈ 0.0551 µM)
20 | CN(Cc1ccc(-c2ccc(OC(F)(F)F)cc2)o1)CC(O)(Cn1cncn1)c1ccc(F)cc1F (stereo not given) | 0.1 (≈ 0.197 µM) | 0.025 (≈ 0.0492 µM) | 0.1 (≈ 0.197 µM) | 0.05 (≈ 0.0983 µM) | 0.2 (≈ 0.393 µM) | 0.012 (≈ 0.0236 µM) | 0.012 (≈ 0.0236 µM)
